Measurements reported in article PMC7985203, “LLL12B, a small molecule STAT3 inhibitor, induces growth arrest, apoptosis, and enhances cisplatin-mediated cytotoxicity in medulloblastoma cells” (Scientific Reports, 2021).
Like-named read-outs stand apart in the source and are kept apart here.

Experiments:
STAT3 protein = system: STAT3 protein; design: method as in PMID 32412740; conditions: intact MCF-7 breast cancer cells; cited from earlier work
[1] = system: D425 medulloblastoma cells; assay: Pilot orthotopic tumor model in vivo; design: species or system mice
[2] = In vivo pharmacokinetics (PK) in mice dosed PO
[3] = system: INF-γ stimulated STAT1 phosphorylation; assay: INF-γ induced P-STAT1 in DaoY cells (Western blot); format: cell-based, human; conditions: 1 and 2.5 μM for 4 h, then INF-γ 50 ng/mL 30 min
Source text: (§1) Cells was harvested and extracted using cell lysis buffer (Cell Signaling) supplemented with phosphatase and protease inhibitors. Tumors from mice were grinded in the liquid nitrogen, and extracted proteins using cell lysis buffer supplemented with phosphatase and protease inhibitors. Extracted protein samples were separated by 10% SDS-PAGE and transferred to polyvinylidene difluoride membranes. After blocking with TBS-T buffer containing 5% skim milk (Lab Scientific Inc) at room temperature for 1 h, each membrane was incubated at 4 °C overnight with one of the following primary antibodies at 1:1,000 dilution: rabbit anti-phosphorylated STAT3 (Y705), rabbit anti-STAT3, rabbit anti-phosphorylated STAT1 (Y701), rabbit anti-STAT1, rabbit anti-Cyclin D1, rabbit anti-Survivin, and rabbit anti-GAPDH. Subsequently, each membrane was washed with TBS-T and incubated with horseradish peroxidase-conjugated secondary antibody (1:10,000) at room temperature for 1.5 h. Proteins of interest were visualized using SUPERSIGNAL West Femto Maximum Sensitivity Substrate (Thermo, #34096). Quantification was performed using ImageJ.
(§2) To verify the selective toxicity of LLL12B, DaoY human medulloblastoma cell line was used and treated with LLL12B (1 and 2.5 μM) or DMSO for 4 h followed by induction of IL-6 or INF-γ (50 ng/mL) for 30 min. […]

[4] = system: IL-6 induced phosphorylation of STAT3; assay: IL-6 stimulated P-STAT3 in DaoY cells (Western blot); format: cell-based, human; conditions: 1 and 2.5 μM for 4 h, then IL-6 50 ng/mL 30 min
Source text: as §1, §2

[5] = system: D283 medulloblastoma cells; assay: Tumorsphere formation, D283; format: cell-based, human; conditions: LLL12B 0.5 and 1 μM and/or cisplatin 0.5 and 1 μM, 8 days
Method: (§3) Cells were seeded (10,000 cells/mL) in ultra-low attachment 6-wells plates and treated with different concentrations of LLL12B and/or cisplatin or DMSO alone for 8 days. One-half of the culture volume of fresh 3D Tumorsphere Medium XF was added every 4 days. Images were captured on a Nikon Eclipse TS100 microscope. Original magnification, × 10.

P-ERK = assay: Western blot of P-ERK in medulloblastoma cells; format: cell-based, human; conditions: 0.5 to 2.5 μM, 4 or 8 h
[6] = system: D283 medulloblastoma xenografts; assay: D283 tumor xenograft model in nude mice; format: in vivo; conditions: for STAT3 phosphorylation in tumors: Western blot, LLL12B 2.5 mg/kg and/or cisplatin 5 mg/kg
Method: (§4) All animal studies were carried out in accordance with the standard procedures approved by the Institutional Animal Care and Use Committee (IACUC) of University of Maryland School of Medicine and University of Florida respectively. Furthermore, our animal studies were performed in compliance with the ARRIVE guidelines. Cells (1 × 10^7 cells/sites) were suspended in PBS mixed with matrigel (1:1, Corning, # 354234) and injected subcutaneously into the flank region of 4 to 5 week-old female athymic nude mice (Envigo). When the volume of the tumors reached approximately 100 mm^3, mice were randomized into four groups: (1) LLL12B (2.5 mg/kg) treated orally once daily only, (2) cisplatin (5 mg/kg) intraperitoneal injection treated once every four days only, (3) combination of LLL12B (2.5 mg/kg) oral once daily and cisplatin (5 mg/kg) intraperitoneal injection once every four days and (4) vehicle only once daily. Tumor growth was determined by measuring the minor (W) and major (L) diameter once every other day with a caliper, and calculated according to the following equation: tumor volume = 0.5236 × L × W^2. Body weight and clinical signs were monitored once every other day. In vivo PK studies in mice were performed by Dr. Chenglong Li’s laboratory at the University of Florida.
Figure 6 LLL12B suppressed tumor growth in medulloblastoma xenografts. (A) Tumor volume, (B) Tumor weights. (C) Tumor samples. (D) Body weights. (E) Western blot of tumor samples. The protein expression levels of P-STAT3(Y705), STAT3, and GAPDH. D283 cells (1 × 10^7 cells/tumor) were harvested and suspended in PBS and then implanted subcutaneously with matrigel (1:1 ratio) into the flank region of 4 to 5 week-old female athymic nude mice. Mice were randomized into three groups (6 mice for each group) and treated with LLL12B (2.5 mg/kg or 5 mg/kg, oral gavage, once daily).
Figure 9 LLL12B and cisplatin combination suppressed tumor growth in D283 medulloblastoma xenografts. (A) Tumor volumes. (B) Tumor weights. (C) Body weight. (D) Western blots to analyze protein expression in the representative tumor samples. Expression levels of p-STAT3(Y705), STAT3, CyclinD1, Survivin, and GAPDH. D283 medulloblastoma cells (1 × 10^7 cells/tumor) were implanted subcutaneously into the flank region of 4 to 5 week-old female athymic nude mice. Mice were randomized into four groups (5 mice for each group) and treated with LLL12B (2.5 mg/kg, oral gavage, once daily) and/or cisplatin (5 mg/kg, intraperitoneal injection, once every 4 days) or vehicle alone.

[7] = system: D425 medulloblastoma cells; assay: MTT cell viability assay, D425; format: cell-based, human; conditions: 0.5 μM, 48 h, siRNA transfection experiment
Method: SignalSilence STAT3 siRNA I was purchased from Cell Signaling (#6580) and medulloblastoma cells were transfected using Lipofectamine 2000 reagent (Invitrogen). The sequence of STAT3 siRNA: GGUCCCUCAUCCUGUUUGU, ACAAACAGGAUGAGGGACC. AMBION SILENCER Negative Control siRNA (#AM4611) was purchased from Invitrogen. Cells were seeded in 96-well plates (8,000 cells/well) and allowed to adhere overnight. siRNA and Lipofectamine 2000 were diluted at 1:50 in Opti-MEM medium respectively. Gently mixed and incubated at room temperature for 5 min, and then the diluted siRNA was added to the diluted Lipofectamine 2000 reagent (1:1 ratio) with an additional incubation of 25 min. The final concentration of siRNA was 100 nM. After that, culture medium was replaced by Lipofectamine 2000 reagent: siRNA complexes and cultured for 24 h. After transfection, cells were treated with LLL12B or DMSO only for 48 h, and then cell viability was measured by MTT assay.
Cells were seeded in 96-well plates at a density of 3,000 cells. After overnight attachment, cells were treated with different concentrations of LLL12B and/or cisplatin or DMSO alone. After 72 h treatment, 20 μL of MTT solution was added for 4 h of additional culture, and then 150 μL of DMF solubilization solution was added with shaking overnight in the dark. Absorbance was measured at 595 nm. Combination index (CI) was calculated using ComuSyn software. […]

[8] = system: D425 medulloblastoma xenografts; assay: D425 tumor xenograft model in nude mice; format: in vivo; conditions: for STAT3 phosphorylation in tumors: Western blot, LLL12B 2.5 mg/kg and/or cisplatin 5 mg/kg
Method: as §4
Figure 10 Anti-neoplastic activity of LLL12B and cisplatin combined treatment of D425 medulloblastoma xenografts. (A) Tumor volumes. (B) Tumor weights. (C) Body weights. (D) Protein analysis of the representative tumor samples by western blots. Expression levels of p-STAT3 (Y705), STAT3, CyclinD1, Survivin, and GAPDH. D245 medulloblastoma cells (1 × 10^7 cells/tumor) were implanted subcutaneously into the flank region of 4 to 5 week-old female athymic nude mice. Mice were randomized into four groups (5 mice for each group) and treated with LLL12B (2.5 mg/kg, oral gavage, once daily) and/or cisplatin (5 mg/kg, intraperitoneal injection, once every 4 days) or vehicle alone.

P-AKT = assay: Western blot of P-AKT in medulloblastoma cells; format: cell-based, human; conditions: 4 or 8 h
[9] = system: STAT3 phosphorylation (Y705); assay: Western blot of STAT3 phosphorylation in medulloblastoma cells; format: cell-based, human
Source text: as §1

active caspase-3/7 = assay: Apoptosis assay (Caspase-3/7 Fluorescence Assay Kit); format: cell-based, human; conditions: D425, D283, UW426 cells; LLL12B 1 μM, cisplatin 2.5 μM, 5 h
Method: Cells were plated in 96-well plates (8000–12,000 cells/well) and allowed to adhere overnight. Cells were treated with LLL12B or DMSO only. After 5 h treatment, active caspase-3/7 were measured using Caspase-3/7 Fluorescence Assay Kit (Cayman, Ann Arbor, MI) according to the manufacture’s instruction. Briefly, cells were centrifuged in the plate (800 g, 5 min) and the culture medium was aspirated, and then 200 µL of assay buffer was added to each well to wash the cells and the supernatant was removed after centrifuge. After that, 100 µL of cell-based assay lysis buffer was added to each well with shaking for 30 min at room temperature. Subsequently, 90 µL of the supernatant from each well was transferred to a corresponding well in a new black 96-well plate and 10 µL of assay buffer was added to appropriate wells. The plate was incubated at 37 °C for 90 min followed by addition of 100 µL of the caspase-3/7 substrate solution. Finally, the fluorescence intensity of each well was read at excitation 485 nm and emission 535 nm. All treatments were performed in triplicate.

Cyclin D1 and Survivin = assay: Western blot of STAT3 downstream targets in medulloblastoma cells; format: cell-based, human; conditions: D283, D425, UW426, UW288 cells; 0.5 to 2.5 μM, 16 h
Source text: as §1

[10] = system: D425 medulloblastoma cells; assay: Tumorsphere formation, D425; format: cell-based, human; conditions: LLL12B 0.5 and 1 μM and/or cisplatin 0.5 and 1 μM, 8 days
Method: as §3

[11] = LLL12B 2.5 mg/kg oral daily and/or cisplatin 5 mg/kg ip every 4 days

SMILES: NS(=O)(=O)c1cccc2c1C(=O)c1cccc(O)c1C2=O [LLL12]
- binding to STAT3 protein in intact cells (STAT3 protein): binds to STAT3 protein
- survival (average) ([1]; vehicle 19 days): 24 days
- AUCall ([2]; 20 mg/kg): 0.0407 µM·h
- Bioavailability (F) ([2]; 20 mg/kg): 2.73%
- Cmax ([2]; 20 mg/kg): 176 nM
- Tmax ([2]; 20 mg/kg): 0.083 h
- oral Tmax ([2]; one time 20 mg/kg): 5 min

SMILES: CN(C)C(=O)Oc1cccc2c1C(=O)c1cccc(S(N)(=O)=O)c1C2=O [LLL12B]
- induction of phosphorylated STAT1 protein by INF-γ [3]: without affecting
- IL-6 induced phosphorylation of STAT3 [4]: significantly inhibited
- tumorsphere formation [5]: numbers and sizes of tumorspheres decreased
- survival of mice with tumors [1]: limited extension of the survival
- P-ERK (P-ERK; D283 cells): did not generally inhibit
- P-ERK (P-ERK; UW288 cells): some inhibition
- P-ERK (P-ERK; UW426 cells): induced
- suppression of tumor growth and tumor weights vs vehicle ([6]; 2.5 mg/kg oral gavage once daily): ~ 40%
- suppression of tumor growth and tumor weights vs vehicle ([6]; 5 mg/kg oral gavage once daily): ~ 75%
- body weight of mice ([6]; 2.5 or 5 mg/kg oral gavage once daily): no significant impact
- P-STAT3(Y705) level in tumors ([6]; 2.5 or 5 mg/kg oral, Western blot vs vehicle): dose-dependently down-regulated
- body weights [6, 11]: little effect
- STAT3 phosphorylation in tumors [6]: reduced
- cell viability [7]: could impede cell viability
- body weights [8, 11]: little effect
- STAT3 phosphorylation in tumors [8]: reduced
- P-AKT (P-AKT; D283 cells, 0.5 to 2.5 μM): induced
- P-AKT (P-AKT; UW288 cells, 0.5 to 2.5 μM): some inhibition
- P-AKT (P-AKT; UW426 cells, 2.5 μM): bound back
- P-AKT (P-AKT; UW426 cells, 0.5 and 1.0 μM): reduced
- STAT3 phosphorylation (Y705) ([9]; D283, D425, UW426, UW288 cells, 0.5 to 2.5 μM, 16 h): dose-dependently suppressed
- P-STAT3 levels ([9]; UW426, UW288, D283 cells, 0.5, 1.0, 2.5 μM, 4 and 8 h): significantly reduced
- caspase-3/7 activation (apoptosis) (active caspase-3/7): increased
- expression of Cyclin D1 and Survivin (Cyclin D1 and Survivin): downregulated
- Cmax compared to LLL12 ([2]; LLL12B 8 mg/kg vs LLL12 20 mg/kg): more than doubled
- AUC ([2]; mouse, in vivo, 8 mg/kg): 1.36 µM·h
- Cmax ([2]; mouse, in vivo, 8 mg/kg): 278 nM
- bioavailability ([2]; mouse, in vivo, 8 mg/kg, read-out: Bioavailability (F)): 47.7%
- Tmax ([2]; mouse, in vivo, po, 8 mg/kg, one time 8 mg/kg, read-out: oral Tmax): ~8 h
- Tmax ([2]; mouse, in vivo, po, 8 mg/kg, read-out: Tmax): 7.68 h
- tumorsphere formation [10]: numbers and sizes of tumorspheres decreased

SMILES: N.N.[Cl][Pt][Cl] [cisplatin]
- STAT3 phosphorylation in tumors [6]: reduce or partially reduce
- STAT3 phosphorylation in tumors [8]: reduce or partially reduce
- caspase-3/7 activation (apoptosis) (active caspase-3/7): increased
